Experimental data as given in ChEMBL document CHEMBL4196213, “Design and Synthesis of Novel Amino-triazine Analogues as Selective Bruton's Tyrosine Kinase Inhibitors for Treatment of Rheumatoid Arthritis” (J Med Chem, 2018).
In brackets after ≈: the same amount, converted by molar mass. Blank lines part the entries; values can stand above or below the molecule they belong to.

Key:
[1] = Kinetic solubility of the compound incubated for 1 hr by LC-UV or LC-MS/MS analysis; assay type: physicochemical; settings: read-out: Kinetic_solubility
[2] = Tmax in dog at 2 mg/kg, po; assay type: ADME, organism-based, Canis lupus familiaris; settings: in vivo
[3] = Cmax in dog at 1 mg/kg, iv; assay type: ADME, organism-based, Canis lupus familiaris; design: dose 1 mg/kg, route intravenous; settings: in vivo
[4] = Cmax in dog at 2 mg/kg, po; assay type: ADME, organism-based, Canis lupus familiaris; design: dose 2 mg/kg, route oral; settings: in vivo
[5] = AUC (0 to t) in dog at 1 mg/kg, iv; assay type: ADME, organism-based, Canis lupus familiaris; settings: in vivo
[6] = AUC (0 to t) in dog at 2 mg/kg, po; assay type: ADME, organism-based, Canis lupus familiaris; settings: in vivo
[7] = AUC (0 to infinity) in dog at 1 mg/kg, iv; assay type: ADME, organism-based, Canis lupus familiaris; design: dose 1 mg/kg, time infinity, route intravenous; settings: in vivo
[8] = AUC (0 to infinity) in dog at 2 mg/kg, po; assay type: ADME, organism-based, Canis lupus familiaris; design: dose 2 mg/kg, time infinity, route oral; settings: in vivo
[9] = Volume of distribution in dog at 1 mg/kg, iv; assay type: ADME, organism-based, Canis lupus familiaris; settings: in vivo
[10] = MRT (0 to infinity) in dog at 1 mg/kg, iv; assay type: ADME, organism-based, Canis lupus familiaris; settings: in vivo
[11] = Oral bioavailability in dog at 2 mg/kg, iv; assay type: ADME, organism-based, Canis lupus familiaris; settings: in vivo
[12] = Apparent permeability in human Caco2 cells; assay type: ADME, cell-based; settings: Caco-2
[13] = Tmax in mouse at 10 mg/kg, po; assay type: ADME, organism-based; settings: in vivo
[14] = Cmax in mouse at 2 mg/kg, iv; assay type: ADME, organism-based; design: dose 2 mg/kg, route intravenous; settings: in vivo
[15] = AUC (0 to t) in mouse at 2 mg/kg, iv; assay type: ADME, organism-based; settings: in vivo
[16] = AUC (0 to t) in mouse at 10 mg/kg, po; assay type: ADME, organism-based; settings: in vivo
[17] = AUC (0 to infinity) in mouse at 2 mg/kg, iv; assay type: ADME, organism-based; design: dose 2 mg/kg, time infinity, route intravenous; settings: in vivo
[18] = AUC (0 to infinity) in mouse at 10 mg/kg, po; assay type: ADME, organism-based; design: dose 10 mg/kg, time infinity, route oral; settings: in vivo
[19] = Volume of distribution in mouse at 2 mg/kg, iv; assay type: ADME, organism-based; settings: in vivo
[20] = MRT (0 to infinity) in mouse at 2 mg/kg, iv; assay type: ADME, organism-based; settings: in vivo
[21] = MRT (0 to infinity) in mouse at 10 mg/kg, po; assay type: ADME, organism-based; settings: in vivo
[22] = Oral bioavailability in mouse at 10 mg/kg; assay type: ADME, organism-based; settings: in vivo
[23] = Tmax in rat at 10 mg/kg, po; assay type: ADME, organism-based; settings: in vivo
[24] = Cmax in rat at 1 mg/kg, iv; assay type: ADME, organism-based; design: dose 1 mg/kg, route intravenous; settings: in vivo
[25] = Cmax in rat at 10 mg/kg, po; assay type: ADME, organism-based; design: dose 10 mg/kg, route oral; settings: in vivo
[26] = AUC (0 to t) in rat at 1 mg/kg, iv; assay type: ADME, organism-based; settings: in vivo
[27] = AUC (0 to t) in rat at 10 mg/kg, po; assay type: ADME, organism-based; settings: in vivo
[28] = AUC (0 to infinity) in rat at 10 mg/kg, po; assay type: ADME, organism-based; design: dose 10 mg/kg, route oral, time infinity; settings: in vivo
[29] = Volume of distribution in rat at 1 mg/kg, iv; assay type: ADME, organism-based; settings: in vivo
[30] = MRT (0 to infinity) in rat at 1 mg/kg, iv; assay type: ADME, organism-based; settings: in vivo
[31] = MRT (0 to infinity) in rat at 10 mg/kg, po; assay type: ADME, organism-based; settings: in vivo
[32] = Oral bioavailability in rat at 10 mg/kg; assay type: ADME, organism-based; settings: in vivo

SMILES: Cn1cc(Nc2nc(N)nc(-c3cccc(-n4ccc5cc(C6CC6)cc(F)c5c4=O)c3CO)n2)cn1.O=S(=O)(O)O
Tmax [2]: 2 h
Cmax [3]: 4960 ng/mL
Cmax [4]: 2090 ng/mL
AUC(0-t) [5]: 11300 ng·h/mL
AUC(0-t) [6]: 9850 ng·h/mL
AUC(0-inf) [7]: 11500 ng·h/mL
AUC(0-inf) [8]: 10000 ng·h/mL
Vd [9]: 0.29 L/kg
MRT inf [10]: 3.31 h
bioavailability [11]: 43.7%

SMILES: Nc1nc(Nc2cn[nH]c2)nc(-c2cccc(-n3ccc4cc(C5CC5)cc(F)c4c3=O)c2CO)n1
solubility kinetic at 1 h [1]: 12 µM (≈ 5.81 µg/mL)

SMILES: Nc1nc(Nc2cnn(C3CC3)c2)nc(-c2cccc(-n3ccc4cc(C5CC5)cc(F)c4c3=O)c2CO)n1
solubility kinetic at 1 h [1]: 4.7 µM (≈ 2.47 µg/mL)

SMILES: CC(C)(C)c1ccc(C(=O)Nc2cccc(-c3nc(N)nc(Nc4ccc(N5CCOCC5)cc4)n3)c2CO)cc1
Papp [12]: 16.3 ×10⁻⁶ cm/s

SMILES: Nc1nc(Nc2ccc(N3CCOCC3)cc2)nc(-c2cccc(-n3ccc4cc(C5CC5)cc(F)c4c3=O)c2CO)n1
solubility kinetic at 1 h [1]: 1.2 µM (≈ 0.696 µg/mL)

SMILES: CC(C)(C)c1ccc(C(=O)Nc2cccc(-c3nc(N)nc(Nc4ccc(C(=O)N5CCOCC5)cc4)n3)c2CO)cc1
Papp [12]: 7.4 ×10⁻⁶ cm/s

Continued, values first:

solubility kinetic at 1 h [1]: 4 µM (≈ 2.19 µg/mL)
SMILES: N#Cc1cc(Nc2nc(N)nc(-c3cccc(-n4ccc5cc(C6CC6)cc(F)c5c4=O)c3CO)n2)cn1C1CC1

solubility kinetic at 1 h [1]: 0.67 µM (≈ 0.35 µg/mL)
SMILES: Cn1cc(Nc2nc(N)nc(-c3cccc(-n4ccc5cc(C6CC6)cc(F)c5c4=O)c3CO)n2)cc1C#N

solubility kinetic at 1 h [1]: 4.8 µM (≈ 2.64 µg/mL)
SMILES: CC(C)n1cc(Nc2nc(N)nc(-c3cccc(-n4ccc5cc(C6CC6)cc(F)c5c4=O)c3CO)n2)cc1C#N

solubility kinetic at 1 h [1]: 2 µM (≈ 1.11 µg/mL)
SMILES: CC(C1CC1)n1cc(Nc2nc(N)nc(-c3cccc(-n4ccc5cc(C6CC6)cc(F)c5c4=O)c3CO)n2)cn1 (configuration not stated)

solubility kinetic at 1 h [1]: 9.5 µM (≈ 5.8 µg/mL)
SMILES: COCCOCCn1cc(Nc2nc(N)nc(-c3cccc(-n4ccc5cc(C6CC6)cc(F)c5c4=O)c3CO)n2)cc1C#N

solubility kinetic at 1 h [1]: 0.71 µM (≈ 0.381 µg/mL)
SMILES: CCn1cc(Nc2nc(N)nc(-c3cccc(-n4ccc5cc(C6CC6)cc(F)c5c4=O)c3CO)n2)cc1C#N

solubility kinetic at 1 h [1]: 20 µM (≈ 9.97 µg/mL)
Tmax [13]: 0.5 h
Cmax [14]: 2890 ng/mL
AUC(0-t) [15]: 3110 ng·h/mL
AUC(0-t) [16]: 10200 ng·h/mL
AUC(0-inf) [17]: 3110 ng·h/mL
AUC(0-inf) [18]: 10200 ng·h/mL
Vd [19]: 3.03 L/kg
MRT inf [20]: 1.3 h
MRT inf [21]: 1.56 h
bioavailability [22]: 65.8%
Tmax [23]: 2 h
Cmax [24]: 1380 ng/mL
Cmax [25]: 1480 ng/mL
AUC(0-t) [26]: 1920 ng·h/mL
AUC(0-t) [27]: 8700 ng·h/mL
AUC(0-inf) [28]: 8710 ng·h/mL
Vd [29]: 1.1 L/kg
MRT inf [30]: 1.79 h
MRT inf [31]: 4.88 h
bioavailability [32]: 44.4%
SMILES: Cn1cc(Nc2nc(N)nc(-c3cccc(-n4ccc5cc(C6CC6)cc(F)c5c4=O)c3CO)n2)cn1 [SOFNOBRUTINIB]
